Measurements from patent US8993608B2, “Method for inhibiting topoisomerase II” (Synta Pharmaceuticals Corp., priority 2007, dated 2015).

What was measured:
Her2 = assay: Degradation of Her2 in BT-474 cells after treatment (Method 1, SDS-PAGE/immunoblot); type: cell-based, Human; settings: overnight
Protocol: Human high-Her2 breast carcinoma BT474 (HTB-20), SK-BR-3 (HTB-30) and MCF-7 breast carcinoma (HTB-22) from American Type Culture Collection, Va., USA were grown in Dulbecco's modified Eagle's medium with 4 mM L-glutamine and antibiotics (100 IU/ml penicillin and 100 ug/ml streptomycine;GibcoBRL). To obtain exponential cell growth, cells were trypsinized, counted and seeded at a cell density of 0.5×10^6 cells /ml regularly, every 3 days. All experiments were performed on day 1 after cell passage.
BT-474 cells were treated with 0.5 μM, 2 μM, or 5 μM of 17AAG (a positive control) or 0.5 μM, 2 μM, or 5 μM of Compound 108 or Compound 49 overnight in DMEM medium. After treatment, each cytoplasmic sample was prepared from 1×10^6 cells by incubation of cell lysis buffer (#9803, cell Signaling Technology) on ice for 10 minutes. The resulting supernatant used as the cytosol fractions were dissolved with sample buffer for SDS-PAGE and run on a SDS-PAGE gel, blotted onto a nitrocellulose membrane by using semi-dry transfer. Non-specific binding to nitrocellulose was blocked with 5% skim milk in TBS with 0.5% Tween at roomtemperature for 1 hour, then probed with anti-Her2/ErB2 mAb (rabbit IgG, #2242, Cell Signaling) and anti-Tubulin (T9026, Sigma) as housekeeping control protein. HRP-conjugated goat anti-rabbit IgG (H+L) and HRP-conjugated horse anti-mouse IgG (H+L) were used as secondary Ab (#7074, #7076, Cell Signaling) and LumiGLO reagent, 20× Peroxide (#7003, Cell Signaling) was used for visualization.

Hsp90 protein = assay: Malachite Green Assay of ATPase activity of Hsp90 protein; type: biochemical
Protocol: Hsp90 protein was obtained from Stressgen (Cat#SPP-770). Assay buffer: 100 mM Tris-HCl, Ph7.4, 20 mM KCl, 6 mM MgCl2. […] Malachite green reagent was added to the reaction. […] The plate was read by an ELISA reader with an absorbance at 620 nm.

human topo II = human topo II (Homo sapiens, UniProt P11388); settings: Gadelle et al., Biochemical Pharmacology (2006); cited from earlier work
topoisomerase II = target: T1, topoisomerase II (Homo sapiens, UniProt P11388); assay: kDNA decatenation assay for inhibition of topoisomerase II; type: biochemical; settings: 200 nM, lane 8 of FIG. 3
T1 construct: purchased TopoGEN, Inc
Protocol: The ability of compounds of the invention to inhibit the activity of topoisomerase II was examined with a kDNA decatenation assay (TopoGEN, Inc. Port Orange, Fla.). Substrate kDNA was mixed with compounds and incubated at 37° C. for 30 min. The reaction was stop by adding ⅕ volume of stop buffer. 20 μl of the reaction was loaded on 1% agarose gel. Image of decatenation of kDNA by compounds was taken by Kodak Image Station 440.
In the presence of topoisomerase II, decatenated nicked and circular kDNAs are located at the bottom of the gel. […] Table 9 indicates the ability of compounds of the invention to inhibit the activity of topoisomease II.

Sequence of human topo II (P11388 whole entry): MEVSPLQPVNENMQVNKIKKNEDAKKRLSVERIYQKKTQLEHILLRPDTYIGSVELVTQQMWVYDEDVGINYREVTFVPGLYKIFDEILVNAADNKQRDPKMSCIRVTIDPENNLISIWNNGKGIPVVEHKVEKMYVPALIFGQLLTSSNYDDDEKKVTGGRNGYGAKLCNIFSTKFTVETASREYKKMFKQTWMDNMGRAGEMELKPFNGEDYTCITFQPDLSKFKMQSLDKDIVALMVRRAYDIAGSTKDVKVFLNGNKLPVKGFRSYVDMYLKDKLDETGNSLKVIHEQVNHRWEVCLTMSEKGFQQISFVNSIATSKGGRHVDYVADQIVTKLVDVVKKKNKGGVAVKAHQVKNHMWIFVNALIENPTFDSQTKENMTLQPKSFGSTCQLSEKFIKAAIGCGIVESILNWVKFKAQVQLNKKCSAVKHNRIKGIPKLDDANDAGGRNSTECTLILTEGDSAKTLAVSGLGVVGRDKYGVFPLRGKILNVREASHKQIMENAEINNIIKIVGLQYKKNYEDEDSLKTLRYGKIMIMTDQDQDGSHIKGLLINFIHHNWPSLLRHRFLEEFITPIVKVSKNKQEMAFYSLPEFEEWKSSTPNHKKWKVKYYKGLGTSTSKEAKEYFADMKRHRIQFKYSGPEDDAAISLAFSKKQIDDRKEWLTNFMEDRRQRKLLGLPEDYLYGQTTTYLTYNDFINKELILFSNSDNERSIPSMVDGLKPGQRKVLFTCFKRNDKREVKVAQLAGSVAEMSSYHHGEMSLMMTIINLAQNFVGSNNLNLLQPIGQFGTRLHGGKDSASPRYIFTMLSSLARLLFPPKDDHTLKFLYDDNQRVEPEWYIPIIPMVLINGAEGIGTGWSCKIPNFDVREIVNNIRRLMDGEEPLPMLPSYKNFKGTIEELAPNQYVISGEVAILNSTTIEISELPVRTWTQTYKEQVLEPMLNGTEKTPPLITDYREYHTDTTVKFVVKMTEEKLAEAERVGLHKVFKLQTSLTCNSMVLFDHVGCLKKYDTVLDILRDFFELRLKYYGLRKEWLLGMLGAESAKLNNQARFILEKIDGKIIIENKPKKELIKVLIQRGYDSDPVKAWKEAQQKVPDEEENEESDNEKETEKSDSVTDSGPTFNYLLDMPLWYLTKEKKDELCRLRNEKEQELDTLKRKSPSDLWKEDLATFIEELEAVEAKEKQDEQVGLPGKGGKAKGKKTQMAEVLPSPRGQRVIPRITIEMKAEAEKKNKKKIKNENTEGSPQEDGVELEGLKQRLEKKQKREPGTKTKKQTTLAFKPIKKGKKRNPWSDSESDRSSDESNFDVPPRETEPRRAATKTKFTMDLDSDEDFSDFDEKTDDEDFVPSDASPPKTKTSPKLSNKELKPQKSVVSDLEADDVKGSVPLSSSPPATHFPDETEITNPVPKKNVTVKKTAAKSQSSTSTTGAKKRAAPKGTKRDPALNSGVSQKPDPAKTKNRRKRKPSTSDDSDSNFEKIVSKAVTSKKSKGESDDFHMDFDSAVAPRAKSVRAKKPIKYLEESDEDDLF
T1 sequence (P11388 whole entry): as above

SMILES	degradation of Her2 (Her2; 0.5 μM)	degradation of Her2 (Her2; 2 μM)	degradation of Her2 (Her2; 5 μM)	inhibition of ATPase activity of Hsp90 (Hsp90 protein; 4 μM)	inhibition of ATPase activity of Hsp90 (Hsp90 protein; 40 μM)	inhibition of the activity of human topo II (human topo II)	inhibition of the activity of topoisomerase II (topoisomerase II)
Oc1ccc(-c2nnc(S)n2-c2cccc3ccccc23)c(O)c1 [Compound 108, 3-(2,4-Dihydroxy-phenyl)-4-(naphthalen-1-yl)-5-mercapto-triazole]	partially degradated	partially degradated	almost completely degraded	significant inhibition	even greater inhibition of ATPase activity of Hsp90 than geldanamycin		
CCc1cc(-c2nnc(S)n2-c2cccc3ccccc23)c(O)cc1O [Compound 49, 3-(2,4-Dihydroxy-5-ethyl-phenyl)-4-(naphthalen-1-yl)-5-mercapto-triazole]	partial degradated	complete degradation	complete degradation				
C[C@@H]1C[C@H]2O[C@@H]2/C=C\C=C\C(=O)Cc2c(Cl)c(O)cc(O)c2C(=O)O1 [radicicol]						can inhibit the activity of human topo II	completely inhibits the activity of topoisomerase II
